Assay results published in PMC7385619, “A triple action CDK4/6-PI3K-BET inhibitor with augmented cancer cell cytotoxicity” (Cell Discovery, 2020).
Read-outs that look alike come from different tables or passages of the source.

What was measured:
Assay in all cases: KINOMEscan assay (Eurofins DiscoverX)
Assay type in all cases: binding
kinome (kinase panel) [1] = molecular target: T1, kinome (kinase panel) (Homo sapiens, UniProt P00533, L861Q); conditions: […]; 1000 nM; read-out: Percent Control
T1 construct: purchased Eurofins DiscoverX

kinome (kinase panel) [2] = molecular target: T2, kinome (kinase panel) (Homo sapiens, UniProt Q13237); conditions: PRKG2; 1000 nM; read-out: Percent Control
T2 construct: purchased Eurofins DiscoverX
T2 sequence (Q13237 whole entry): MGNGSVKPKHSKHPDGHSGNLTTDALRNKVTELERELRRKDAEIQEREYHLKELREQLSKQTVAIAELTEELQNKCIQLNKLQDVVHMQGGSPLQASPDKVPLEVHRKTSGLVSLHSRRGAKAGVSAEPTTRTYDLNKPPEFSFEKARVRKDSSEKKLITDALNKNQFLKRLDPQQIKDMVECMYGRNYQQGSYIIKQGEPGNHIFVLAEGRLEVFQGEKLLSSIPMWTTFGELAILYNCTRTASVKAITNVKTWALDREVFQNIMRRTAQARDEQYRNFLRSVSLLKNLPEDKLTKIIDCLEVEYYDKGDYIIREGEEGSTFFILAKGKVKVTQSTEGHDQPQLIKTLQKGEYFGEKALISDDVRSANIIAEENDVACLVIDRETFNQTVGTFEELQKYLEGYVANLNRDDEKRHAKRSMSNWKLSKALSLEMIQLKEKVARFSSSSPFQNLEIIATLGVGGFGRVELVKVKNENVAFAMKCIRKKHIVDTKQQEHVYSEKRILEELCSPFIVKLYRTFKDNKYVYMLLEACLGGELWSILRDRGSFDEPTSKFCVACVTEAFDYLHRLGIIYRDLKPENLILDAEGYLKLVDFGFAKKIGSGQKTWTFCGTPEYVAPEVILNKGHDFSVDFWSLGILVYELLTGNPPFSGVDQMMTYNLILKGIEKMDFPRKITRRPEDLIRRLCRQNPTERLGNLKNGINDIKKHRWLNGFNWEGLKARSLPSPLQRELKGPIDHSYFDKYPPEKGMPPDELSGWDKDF

kinome (kinase panel) [3] = molecular target: T3, kinome (kinase panel) (Homo sapiens, UniProt O75716); conditions: STK16; 1000 nM; read-out: Percent Control
T3 construct: purchased Eurofins DiscoverX

kinome (kinase panel) [4] = molecular target: T4, kinome (kinase panel) (Homo sapiens, UniProt P20794); conditions: MAK; 1000 nM; read-out: Percent Control
T4 construct: purchased Eurofins DiscoverX

kinome (kinase panel) [5] = molecular target: T5, kinome (kinase panel) (Homo sapiens, UniProt P09619); conditions: PDGFRB; 1000 nM; read-out: Percent Control
T5 construct: purchased Eurofins DiscoverX

kinome (kinase panel) [6] = molecular target: T6, kinome (kinase panel) (Homo sapiens, UniProt P49674); conditions: CSNK1E; 1000 nM; read-out: Percent Control
T6 construct: purchased Eurofins DiscoverX
T6 sequence (P49674 whole entry): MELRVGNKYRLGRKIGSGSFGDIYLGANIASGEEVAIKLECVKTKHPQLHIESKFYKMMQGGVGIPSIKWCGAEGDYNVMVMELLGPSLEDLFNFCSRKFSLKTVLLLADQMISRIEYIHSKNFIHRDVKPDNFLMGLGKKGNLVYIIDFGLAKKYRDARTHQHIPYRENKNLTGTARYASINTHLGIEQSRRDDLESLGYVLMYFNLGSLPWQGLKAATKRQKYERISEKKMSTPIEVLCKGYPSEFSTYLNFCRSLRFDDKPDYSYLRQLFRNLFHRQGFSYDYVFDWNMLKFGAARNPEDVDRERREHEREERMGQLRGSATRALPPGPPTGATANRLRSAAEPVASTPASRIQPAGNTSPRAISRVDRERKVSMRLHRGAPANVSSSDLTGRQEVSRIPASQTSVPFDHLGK

kinome (kinase panel) [7] = molecular target: T7, kinome (kinase panel) (Homo sapiens, UniProt Q8WXR4); conditions: MYO3B; 1000 nM; read-out: Percent Control
T7 construct: purchased Eurofins DiscoverX

kinome (kinase panel) [8] = molecular target: T8, kinome (kinase panel) (Homo sapiens, UniProt Q9UEE5); conditions: DRAK1 (Entrez STK17A); 1000 nM; read-out: Percent Control
T8 construct: purchased Eurofins DiscoverX

kinome (kinase panel) [9] = molecular target: T9, kinome (kinase panel) (Homo sapiens, UniProt P53671); conditions: LIMK2; 1000 nM; read-out: Percent Control
T9 construct: purchased Eurofins DiscoverX

kinome (kinase panel) [10] = molecular target: T10, kinome (kinase panel) (Homo sapiens, UniProt Q9UM73, C1156Y); conditions: […]; 1000 nM; read-out: Percent Control
T10 construct: purchased Eurofins DiscoverX

kinome (kinase panel) [11] = molecular target: T11, kinome (kinase panel) (Homo sapiens, UniProt Q14004); conditions: CDC2L5 (Entrez CDK13); 1000 nM; read-out: Percent Control
T11 construct: purchased Eurofins DiscoverX

kinome (kinase panel) [12] = molecular target: T12, kinome (kinase panel) (Homo sapiens, UniProt P08631); conditions: HCK; 1000 nM; read-out: Percent Control
T12 construct: purchased Eurofins DiscoverX

kinome (kinase panel) [13] = molecular target: T13, kinome (kinase panel) (Homo sapiens, UniProt Q9Y2H9); conditions: MAST1; 1000 nM; read-out: Percent Control
T13 construct: purchased Eurofins DiscoverX

kinome (kinase panel) [14] = molecular target: T14, kinome (kinase panel) (Homo sapiens, UniProt Q16566); conditions: CAMK4; 1000 nM; read-out: Percent Control
T14 construct: purchased Eurofins DiscoverX
T14 sequence (Q16566 whole entry): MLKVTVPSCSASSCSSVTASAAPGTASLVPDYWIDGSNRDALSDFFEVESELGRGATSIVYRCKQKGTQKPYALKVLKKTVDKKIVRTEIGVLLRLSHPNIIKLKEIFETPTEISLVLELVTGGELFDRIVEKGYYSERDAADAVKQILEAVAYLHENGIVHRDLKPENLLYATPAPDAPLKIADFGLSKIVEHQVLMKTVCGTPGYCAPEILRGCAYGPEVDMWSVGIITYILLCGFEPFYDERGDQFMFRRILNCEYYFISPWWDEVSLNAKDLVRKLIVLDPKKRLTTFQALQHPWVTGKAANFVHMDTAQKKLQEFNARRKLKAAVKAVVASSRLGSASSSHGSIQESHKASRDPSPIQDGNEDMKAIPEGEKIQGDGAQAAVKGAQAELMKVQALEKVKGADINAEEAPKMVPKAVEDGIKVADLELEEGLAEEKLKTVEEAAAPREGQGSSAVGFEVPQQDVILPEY

kinome (kinase panel) [15] = molecular target: T15, kinome (kinase panel) (Homo sapiens, UniProt Q02779); conditions: MLK2 (Entrez MAP3K10); 1000 nM; read-out: Percent Control
T15 construct: purchased Eurofins DiscoverX

kinome (kinase panel) [16] = molecular target: T16, kinome (kinase panel) (Homo sapiens, UniProt Q6P2M8); conditions: CAMK1B (Entrez PNCK); 1000 nM; read-out: Percent Control
T16 construct: purchased Eurofins DiscoverX
T16 sequence (Q6P2M8 whole entry): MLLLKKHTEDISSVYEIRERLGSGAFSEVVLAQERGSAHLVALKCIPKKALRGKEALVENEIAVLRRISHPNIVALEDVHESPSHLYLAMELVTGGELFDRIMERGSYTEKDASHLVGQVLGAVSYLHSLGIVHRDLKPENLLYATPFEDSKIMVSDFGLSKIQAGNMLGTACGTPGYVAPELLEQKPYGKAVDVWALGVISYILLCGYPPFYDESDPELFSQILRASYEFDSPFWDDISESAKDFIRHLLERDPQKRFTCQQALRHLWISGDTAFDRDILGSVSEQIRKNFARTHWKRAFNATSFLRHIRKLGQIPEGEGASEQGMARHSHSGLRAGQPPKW

kinome (kinase panel) [17] = molecular target: T17, kinome (kinase panel) (Homo sapiens, UniProt P49760); conditions: CLK2; 1000 nM; read-out: Percent Control
T17 construct: purchased Eurofins DiscoverX

kinome (kinase panel) [18] = molecular target: T18, kinome (kinase panel) (Homo sapiens, UniProt Q8WTQ7); conditions: GRK7; 1000 nM; read-out: Percent Control
T18 construct: purchased Eurofins DiscoverX

kinome (kinase panel) [19] = molecular target: T19, kinome (kinase panel) (Homo sapiens, UniProt Q16832); conditions: DDR2; 1000 nM; read-out: Percent Control
T19 construct: purchased Eurofins DiscoverX

kinome (kinase panel) [20] = molecular target: T20, kinome (kinase panel) (Homo sapiens, UniProt P10721, L576P); conditions: […]; 1000 nM; read-out: Percent Control
T20 construct: purchased Eurofins DiscoverX

kinome (kinase panel) [21] = molecular target: T21, kinome (kinase panel) (Homo sapiens, UniProt Q9Y463); conditions: DYRK1B; 1000 nM; read-out: Percent Control
T21 construct: purchased Eurofins DiscoverX

kinome (kinase panel) [22] = molecular target: T22, kinome (kinase panel) (Homo sapiens, UniProt Q6DT37); conditions: DMPK2 (Entrez CDC42BPG); 1000 nM; read-out: Percent Control
T22 construct: purchased Eurofins DiscoverX

kinome (kinase panel) [23] = molecular target: T23, kinome (kinase panel) (Homo sapiens, UniProt Q86UX6); conditions: YANK3 (STK32C); 1000 nM; read-out: Percent Control
T23 construct: purchased Eurofins DiscoverX
T23 sequence (Q86UX6 whole entry): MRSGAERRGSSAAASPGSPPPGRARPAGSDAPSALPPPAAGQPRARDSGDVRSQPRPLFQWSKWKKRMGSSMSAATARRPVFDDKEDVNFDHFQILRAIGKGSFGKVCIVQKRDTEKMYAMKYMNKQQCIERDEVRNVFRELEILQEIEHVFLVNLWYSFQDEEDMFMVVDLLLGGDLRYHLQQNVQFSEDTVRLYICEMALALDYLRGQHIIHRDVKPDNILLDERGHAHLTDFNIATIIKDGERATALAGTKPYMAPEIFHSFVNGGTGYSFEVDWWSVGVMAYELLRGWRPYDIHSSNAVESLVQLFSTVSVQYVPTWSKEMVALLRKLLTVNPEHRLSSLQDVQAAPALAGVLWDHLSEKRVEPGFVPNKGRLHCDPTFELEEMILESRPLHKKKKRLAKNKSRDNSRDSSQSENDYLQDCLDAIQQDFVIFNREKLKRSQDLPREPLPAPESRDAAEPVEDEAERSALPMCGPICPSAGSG

kinome (kinase panel) [24] = molecular target: T24, kinome (kinase panel) (Homo sapiens, UniProt P29322); conditions: EPHA8; 1000 nM; read-out: Percent Control
T24 construct: purchased Eurofins DiscoverX
T24 sequence (P29322 28-1005): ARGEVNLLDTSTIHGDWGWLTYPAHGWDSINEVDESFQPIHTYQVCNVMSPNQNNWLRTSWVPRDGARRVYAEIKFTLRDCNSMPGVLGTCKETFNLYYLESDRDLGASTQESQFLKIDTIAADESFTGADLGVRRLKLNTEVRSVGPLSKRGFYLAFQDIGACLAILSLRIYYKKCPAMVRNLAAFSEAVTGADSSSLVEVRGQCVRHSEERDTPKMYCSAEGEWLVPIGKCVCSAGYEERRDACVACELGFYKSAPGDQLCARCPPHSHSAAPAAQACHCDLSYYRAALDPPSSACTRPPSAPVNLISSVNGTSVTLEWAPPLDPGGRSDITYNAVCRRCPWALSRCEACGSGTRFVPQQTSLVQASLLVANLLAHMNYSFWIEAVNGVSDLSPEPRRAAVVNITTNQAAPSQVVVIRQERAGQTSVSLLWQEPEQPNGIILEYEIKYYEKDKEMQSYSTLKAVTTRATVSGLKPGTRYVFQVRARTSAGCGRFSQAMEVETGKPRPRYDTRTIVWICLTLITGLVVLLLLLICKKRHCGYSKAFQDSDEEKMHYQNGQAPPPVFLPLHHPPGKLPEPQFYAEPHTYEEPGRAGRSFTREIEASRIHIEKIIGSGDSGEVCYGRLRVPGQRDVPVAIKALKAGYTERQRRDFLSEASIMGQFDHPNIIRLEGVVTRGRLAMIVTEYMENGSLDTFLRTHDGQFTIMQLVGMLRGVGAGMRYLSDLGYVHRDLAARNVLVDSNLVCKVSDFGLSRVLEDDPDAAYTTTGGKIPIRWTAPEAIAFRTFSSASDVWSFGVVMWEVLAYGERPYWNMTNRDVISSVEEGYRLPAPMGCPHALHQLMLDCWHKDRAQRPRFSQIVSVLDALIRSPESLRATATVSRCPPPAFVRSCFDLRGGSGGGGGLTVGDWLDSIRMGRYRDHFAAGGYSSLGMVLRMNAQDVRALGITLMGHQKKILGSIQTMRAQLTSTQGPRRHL

kinome (kinase panel) [25] = molecular target: T25, kinome (kinase panel) (Homo sapiens, UniProt P21709); conditions: EPHA1; 1000 nM; read-out: Percent Control
T25 construct: purchased Eurofins DiscoverX

kinome (kinase panel) [26] = molecular target: T26, kinome (kinase panel) (Homo sapiens, UniProt P07333); conditions: 1000 nM, read-out: Percent Control
T26 construct: purchased Eurofins DiscoverX
T26 sequence (P07333 20-972): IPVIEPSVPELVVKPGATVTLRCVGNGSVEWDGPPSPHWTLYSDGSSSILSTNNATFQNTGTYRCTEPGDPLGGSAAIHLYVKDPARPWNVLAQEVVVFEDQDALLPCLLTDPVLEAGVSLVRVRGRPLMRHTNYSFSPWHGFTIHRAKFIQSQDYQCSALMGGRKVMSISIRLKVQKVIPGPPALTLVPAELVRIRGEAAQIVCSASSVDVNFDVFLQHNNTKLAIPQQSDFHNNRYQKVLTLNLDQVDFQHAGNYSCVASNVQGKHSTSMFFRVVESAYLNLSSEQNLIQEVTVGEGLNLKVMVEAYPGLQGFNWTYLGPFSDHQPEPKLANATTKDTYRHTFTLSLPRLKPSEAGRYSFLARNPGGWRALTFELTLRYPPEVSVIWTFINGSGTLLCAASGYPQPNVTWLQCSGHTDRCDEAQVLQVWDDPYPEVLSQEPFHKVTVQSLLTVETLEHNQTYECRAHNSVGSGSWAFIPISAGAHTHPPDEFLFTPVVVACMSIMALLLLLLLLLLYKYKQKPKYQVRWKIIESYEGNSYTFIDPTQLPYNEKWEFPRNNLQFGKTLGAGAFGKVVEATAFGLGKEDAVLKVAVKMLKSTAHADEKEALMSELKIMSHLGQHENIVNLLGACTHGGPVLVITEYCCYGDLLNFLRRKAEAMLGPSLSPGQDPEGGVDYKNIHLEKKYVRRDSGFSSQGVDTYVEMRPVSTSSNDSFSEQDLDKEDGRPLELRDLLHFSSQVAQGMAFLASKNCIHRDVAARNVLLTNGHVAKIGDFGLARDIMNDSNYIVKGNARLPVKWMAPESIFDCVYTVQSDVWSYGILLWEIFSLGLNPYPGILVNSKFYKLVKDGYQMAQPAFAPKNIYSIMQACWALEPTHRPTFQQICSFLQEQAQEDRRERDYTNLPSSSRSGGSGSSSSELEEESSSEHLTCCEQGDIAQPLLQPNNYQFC

kinome (kinase panel) [27] = molecular target: T27, kinome (kinase panel) (Homo sapiens, UniProt Q9UQ88); conditions: CDC2L2; 1000 nM; read-out: Percent Control
T27 construct: purchased Eurofins DiscoverX

kinome (kinase panel) [28] = molecular target: T28, kinome (kinase panel) (Homo sapiens, UniProt Q9NRM7); conditions: LATS2; 1000 nM; read-out: Percent Control
T28 construct: purchased Eurofins DiscoverX

kinome (kinase panel) [29] = molecular target: T29, kinome (kinase panel) (Homo sapiens, UniProt Q9H1R3); conditions: MYLK2; 1000 nM; read-out: Percent Control
T29 construct: purchased Eurofins DiscoverX

kinome (kinase panel) [30] = molecular target: T30, kinome (kinase panel) (Homo sapiens, UniProt Q86V86); conditions: PIM3; 1000 nM; read-out: Percent Control
T30 construct: purchased Eurofins DiscoverX

kinome (kinase panel) [31] = molecular target: T31, kinome (kinase panel) (Homo sapiens, UniProt Q8NI60); conditions: ADCK3 (Entrez CABC1); 1000 nM; read-out: Percent Control
T31 construct: purchased Eurofins DiscoverX

kinome (kinase panel) [32] = molecular target: T32, kinome (kinase panel) (Homo sapiens, UniProt Q8IVW4); conditions: CDKL3; 1000 nM; read-out: Percent Control
T32 construct: purchased Eurofins DiscoverX
T32 sequence (Q8IVW4 whole entry): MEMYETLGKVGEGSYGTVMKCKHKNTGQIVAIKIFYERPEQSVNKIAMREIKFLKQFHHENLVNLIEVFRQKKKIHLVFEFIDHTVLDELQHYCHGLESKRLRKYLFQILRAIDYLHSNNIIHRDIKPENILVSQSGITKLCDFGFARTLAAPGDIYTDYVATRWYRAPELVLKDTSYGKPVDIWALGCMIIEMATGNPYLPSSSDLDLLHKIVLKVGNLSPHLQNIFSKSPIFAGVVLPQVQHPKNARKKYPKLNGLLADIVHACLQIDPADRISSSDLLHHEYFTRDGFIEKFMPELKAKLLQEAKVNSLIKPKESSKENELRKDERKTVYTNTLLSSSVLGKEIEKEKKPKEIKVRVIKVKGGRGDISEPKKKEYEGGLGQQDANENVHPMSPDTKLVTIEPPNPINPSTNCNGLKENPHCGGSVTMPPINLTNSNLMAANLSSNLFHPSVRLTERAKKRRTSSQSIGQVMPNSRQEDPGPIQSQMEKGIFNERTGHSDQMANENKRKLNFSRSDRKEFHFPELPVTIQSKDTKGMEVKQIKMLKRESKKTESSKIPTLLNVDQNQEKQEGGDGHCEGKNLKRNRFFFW

Q: Which results are given for CN(C)C(=O)c1cc2cnc(Nc3ccc(-c4csc5c(=O)cc(N6CCOCC6)oc45)cc3)nc2n1C1CCCC1 [SRX3177]?
A: remaining binding at 1 µM (kinome (kinase panel) [1]): 74%; remaining binding at 1 µM (kinome (kinase panel) [2]): 87%; remaining binding at 1 µM (kinome (kinase panel) [3]): 28%; remaining binding at 1 µM (kinome (kinase panel) [4]): 87%; remaining binding at 1 µM (kinome (kinase panel) [5]): 44%; remaining binding at 1 µM (kinome (kinase panel) [6]): 63%; remaining binding at 1 µM (kinome (kinase panel) [7]): 100%; remaining binding at 1 µM (kinome (kinase panel) [8]): 100%; remaining binding at 1 µM (kinome (kinase panel) [9]): 92%; remaining binding at 1 µM (kinome (kinase panel) [10]): 77%; remaining binding at 1 µM (kinome (kinase panel) [11]): 4.1%; remaining binding at 1 µM (kinome (kinase panel) [12]): 100%; remaining binding at 1 µM (kinome (kinase panel) [13]): 53%; remaining binding at 1 µM (kinome (kinase panel) [14]): 100%; remaining binding at 1 µM (kinome (kinase panel) [15]): 100%; remaining binding at 1 µM (kinome (kinase panel) [16]): 41%; remaining binding at 1 µM (kinome (kinase panel) [17]): 92%; remaining binding at 1 µM (kinome (kinase panel) [18]): 100%; remaining binding at 1 µM (kinome (kinase panel) [19]): 56%; remaining binding at 1 µM (kinome (kinase panel) [20]): 58%; remaining binding at 1 µM (kinome (kinase panel) [21]): 56%; remaining binding at 1 µM (kinome (kinase panel) [22]): 91%; remaining binding at 1 µM (kinome (kinase panel) [23]): 91%; remaining binding at 1 µM (kinome (kinase panel) [24]): 92%; remaining binding at 1 µM (kinome (kinase panel) [25]): 79%; remaining binding at 1 µM (kinome (kinase panel) [26]; CSF1R-autoinhibited): 60%; remaining binding at 1 µM (kinome (kinase panel) [26]; CSF1R): 100%; remaining binding at 1 µM (kinome (kinase panel) [27]): 93%; remaining binding at 1 µM (kinome (kinase panel) [28]): 42%; remaining binding at 1 µM (kinome (kinase panel) [29]): 97%; remaining binding at 1 µM (kinome (kinase panel) [30]): 78%; remaining binding at 1 µM (kinome (kinase panel) [31]): 99%; remaining binding at 1 µM (kinome (kinase panel) [32]): 91%
